US20210161882A1, “DEPOT ADMINISTRATION OF ILOPERIDONE” (Vanda Pharmaceuticals Inc., priority 2018, published 2021)

Assay: Crystalline iloperidone particle size determination (Malvern Mastersizer 2000 laser light scattering)
Format: physicochemical
Details: wet dispersion in saturated 0.1% Tween 80, average of n=2 trials, each the average of 5 acquisitions
Protocol: Crystalline iloperidone particle sizes are determined in accordance with the following example. The Malvern Mastersizer 2000 (Malvern Instruments, Ltd., Malvern, UK) laser light scattering particle size analyzer and Hydro 2000 (Malvern Instruments, Ltd., Malvern, UK) wet sample dispersion unit are turned on, allowing time for the laser to warm up, e.g., for about 30 minutes. The PC is turned on, Mastersizer 2000 software is opened, and a file is created for storing results. An instrument verification check is performed according to SGS SOP EQP-525-10 Operation Preventative Maintenance and Performance Verification of the Mastersizer 2000. A new file for results storage is created, and the device is configured for Existing SOP for iloperidone. The parameters listed under the SOP are verified to confirm accuracy, namely: sample material name, iloperidone depot for injection; refractive index, 1.53, absorption, 0.1; dispersant medium, saturate 0.1% Tween 80 (Sigma Aldrich Co., St. Louis, Mo.) with 0.1% w/v sample; refractive index, 1.33; result model, general purpose; particle shape, irregular; sensitivity, normal; pump speed, 2000 RPM; sample measurement time, 12 seconds (12,000 snaps); background measurement time, 12 seconds (12,000 snaps); size range, 0.020 to 2000.000 μm; aliquot per SOP, 1; number of measurement cycles, 5 (report average); obscuration limits, 10-20%. Verification is made that the outlet tube of the dispersion unit is into the waste tank, and the tank is not full; the waste container is emptied on an as needed basis. […]
Samples are prepared by saturating 0.1% Tween 80 (Sigma-Aldrich Co., St. Louis, Mo.) polysorbate 80 with 0.1% w/v crystalline iloperidone. […] The SOP is started with the parameters for the sample so that the instrument is ready to perform measurements as soon as the sample is introduced to the Hydro 2000 unit. […] Each sample is measured twice (out of one preparation).
The resulting histogram is then evaluated. […]

SMILES: COc1cc(C(C)=O)ccc1OCCCN1CCC(c2noc3cc(F)ccc23)CC1 [crystalline iloperidone, 1-[4-[3-[4-(6-flouro-1,2-benzisoxazol-3-yl)-1-piperidinyl]propoxy]-3-methoxyphenyl]ethanone]
- average Dv10: 14-50 μm
- average Dv50: 91-118 μm
- average Dv90: 188-241 μm
